Among the data in patent US9458106B2, “Phenyl-pyridine/pyrazine amides for the treatment of cancer” (Hoffmann-La Roche Inc., priority 2013, dated 2016) are IC50 values, retold here.

One may read the IC50 as the midpoint of a concentration-inhibition curve. A high value points to lower potency.

Each structure is given as a SMILES string.

The target in one experiment is T1, CDK8/Cyclin C (Homo sapiens, UniProt P49336).
T1 construct: purchased Invitrogen PV4402
T1 sequence (P49336 whole entry): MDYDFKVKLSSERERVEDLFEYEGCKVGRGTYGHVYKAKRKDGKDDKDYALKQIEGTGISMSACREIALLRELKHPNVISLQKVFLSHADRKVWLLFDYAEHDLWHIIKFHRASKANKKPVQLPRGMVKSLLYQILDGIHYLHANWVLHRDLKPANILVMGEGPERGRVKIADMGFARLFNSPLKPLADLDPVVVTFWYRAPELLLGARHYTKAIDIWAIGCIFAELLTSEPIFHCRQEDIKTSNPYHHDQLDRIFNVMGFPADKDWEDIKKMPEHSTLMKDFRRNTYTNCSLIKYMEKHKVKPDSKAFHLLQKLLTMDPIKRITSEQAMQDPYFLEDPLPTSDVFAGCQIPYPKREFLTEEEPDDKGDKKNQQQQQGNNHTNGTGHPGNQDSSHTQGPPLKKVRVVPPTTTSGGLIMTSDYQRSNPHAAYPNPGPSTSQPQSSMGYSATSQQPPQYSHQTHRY
T1 sequence (P24863 whole entry partner): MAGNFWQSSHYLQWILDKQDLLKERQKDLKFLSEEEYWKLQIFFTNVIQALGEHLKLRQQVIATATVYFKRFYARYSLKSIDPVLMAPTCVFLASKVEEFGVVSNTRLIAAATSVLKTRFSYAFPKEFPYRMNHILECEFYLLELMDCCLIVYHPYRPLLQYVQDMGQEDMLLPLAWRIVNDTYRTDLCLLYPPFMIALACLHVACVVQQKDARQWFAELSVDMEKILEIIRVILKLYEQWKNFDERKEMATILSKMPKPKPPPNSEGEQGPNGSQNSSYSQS
Put plainly: CDK8/Cyclin C LANCE TR-FRET kinase assay. In kind it is biochemical. The following applies: CDK8/Cyclin C 10 nM, ATP 24 μM, Ulight-GS peptide 80 nM, 37° C. 30 mins. The text has this:
CDK8/Cyclin C LANCE TR-FRET Kinase Assay
The biological activity of the compounds of the invention can be determined using the assay described below.
CDK8/Cyclin C protein was obtained from Invitrogen, cat #PV4402. ULight-Glycogen Synthase (Ulight-GS) peptide with sequence PASVPPSPSLSRHSSPHQ(pS)ED, and Europium-anti-phospho Glycogen Synthase (Ser641) [Eu-anti-P-GS (Ser641)] were obtained from Perkin Elmer, cat #TRF0131-M and cat #TRF0220. Adenosine-5′-triphosphate (ATP) was obtained from Invitrogen, cat #PV3227.
A mixture of (1) a compound of formula I, (2) substrate [Ulight-GS peptide (80 nM) and ATP (24 μM)], and (3) CDK8/Cyclin C (10 nM) in reaction buffer (50 mM Hepes, pH7.0, 10 mM MgCl2, 1 mM EGTA, 0.2 mg/mL BSA, 0.8 mM DTT) were incubated at 37° C. for 30 mins. Then, [Eu-anti-P-GS (Ser641)] (1.5 nM) was added. Following incubation at RT for 30 mins, the TR-FRET signals were detected using Envision reader (Ex 340 nm, Em 615 nm and 665 nm) from Perkin Elmer. The reactivity in percentage of inhibition or dose response was analyzed with GraphPad Prism 5 (GraphPad Software).
For orientation: In TR-FRET formats the signal depends on donor and acceptor labels being close together.
`COc1ccc(F)c(-c2cncc(NC(C(N)=O)c3ccccc3)c2)c1` (centres unmarked) [Example 16, 2-[5-(2-Fluoro-5-methoxy-phenyl)-pyridin-3-ylamino]-2-phenyl-acetamide] came in with a 50% inhibitory concentration (IC50) of 264 nM. Compound `Cc1ccc(C(Nc2cncc(-c3cc(Cl)ccc3F)c2)C(N)=O)cc1` (centres unmarked) [Example 18, 2-[5-(5-Chloro-2-fluoro-phenyl)-pyridin-3-ylamino]-2-p-tolyl-acetamide] returned an IC50 of 240 nM.

`COc1cccc(-c2cncc(NC(C(N)=O)c3ccccc3)n2)c1` (centres unmarked) [Example 32, 2-[6-(3-Methoxy-phenyl)-pyrazin-2-ylamino]-2-phenyl-acetamide] gave an IC50 of 430 nM. As for `NC(=O)C(Nc1cncc(-c2cc(Cl)c(F)cc2F)c1)c1ccccc1` (centres unmarked) [Example 23, 2-[5-(5-Chloro-2,4-difluoro-phenyl)-pyridin-3-ylamino]-2-phenyl-acetamide], the IC50 is 721 nM. On the same count and under the same terms, next, `COc1cc(-c2cncc(NC(C(N)=O)c3ccccc3)c2)ccn1` (centres unmarked) [Example 6, 2-(2′-Methoxy-[3,4′]bipyridinyl-5-ylamino)-2-phenyl-acetamide]: 2170 nM; `CCOc1ccc(F)c(-c2cncc(NC(C(N)=O)c3ccccc3)c2)c1` (centres unmarked) [Example 7, 2-[5-(5-Ethoxy-2-fluoro-phenyl)-pyridin-3-ylamino]-2-phenyl-acetamide]: 1100 nM. Same read-out and setting: next, `NC(=O)[C@@H](Nc1cncc(-c2ccc(O)c(Cl)c2)c1)c1ccccc1` [Example 4, (S)-2-[5-(3-Chloro-4-hydroxy-phenyl)-pyridin-3-ylamino]-2-phenyl-acetamide]: 471 nM; `NC(=O)[C@@H](Nc1cncc(-c2ccc(O)c(Cl)c2)n1)c1ccccc1` [Example 28, (S)-2-[6-(3-Chloro-4-hydroxy-phenyl)-pyrazin-2-ylamino]-2-phenyl-acetamide]: 32.9 nM.

The compound `NC(=O)C(Nc1cncc(-c2ccc(O)c(Cl)c2)c1)c1ccccc1` (centres unmarked) [Example 2, 2-[5-(3-Chloro-4-hydroxy-phenyl)-pyridin-3-ylamino]-2-phenyl-acetamide] had an IC50 of 105 nM. On the same count and under the same terms, next, `NC(=O)C(Nc1cncc(-c2cc(Cl)ccc2F)c1)c1ccccn1` (centres unmarked) [Example 24, 2-[5-(5-Chloro-2-fluoro-phenyl)-pyridin-3-ylamino]-2-pyridin-2-yl-acetamide]: 2110 nM. The same measure, in the same setting: next, `NC(=O)C(Nc1cncc(-c2ccc(F)c(Cl)c2)c1)c1ccccc1` (centres unmarked) [Example 8, 2-[5-(3-Chloro-4-fluoro-phenyl)-pyridin-3-ylamino]-2-phenyl-acetamide]: 2340 nM. Still for that read-out and setting: next, `NC(=O)C(Nc1cncc(-c2cncc(Cl)c2)c1)c1ccccc1` (centres unmarked) [Example 10, 2-(5′-Chloro-[3,3′]bipyridinyl-5-ylamino)-2-phenyl-acetamide]: 1390 nM; `NC(=O)[C@H](Nc1cncc(-c2cc(Cl)ccc2F)n1)c1ccccc1` [Example 30, (R)-2-[6-(5-Chloro-2-fluoro-phenyl)-pyrazin-2-ylamino]-2-phenyl-aceamide]: 54.7 nM.

Regarding `NC(=O)[C@@H](Nc1cncc(-c2cc(Cl)ccc2F)n1)c1ccccc1` [Example 31, (S)-2-[6-(5-Chloro-2-fluoro-phenyl)-pyrazin-2-ylamino]-2-phenyl-acetamide], the 50% inhibitory concentration (IC50) turned out to be 828 nM.

The compound `NC(=O)C(Nc1cncc(-c2cc(Cl)ccc2F)c1)c1ccccc1Cl` (centres unmarked) [Example 14, 2-[5-(5-Chloro-2-fluoro-phenyl)-pyridin-3-ylamino]-2-(2-chloro-phenyl)-acetamide] displayed an IC50 of 11 nM. Against the preceding compound, the IC50 is about 75-fold lower. On the same count and under the same terms, next, `NC(=O)[C@H](Nc1cncc(-c2ccc(O)c(Cl)c2)c1)c1ccccc1` [Example 3, (R)-2-[5-(3-Chloro-4-hydroxy-phenyl)-pyridin-3-ylamino]-2-phenyl-acetamide]: 7.1 nM; `Cc1ccccc1C(Nc1cncc(-c2cc(Cl)ccc2F)c1)C(N)=O` (centres unmarked) [Example 11, 2-[5-(5-Chloro-2-fluoro-phenyl)-pyridin-3-ylamino]-2-o-tolyl-acetamide]: 35.9 nM; `NC(=O)C(Nc1cncc(-c2ccc(O)c(Cl)c2)n1)c1ccccc1` (centres unmarked) [Example 26, 2-[6-(3-Chloro-4-hydroxy-phenyl)-pyrazin-2-ylamino]-2-phenyl-acetamide]: 4.8 nM. Take `NC(=O)C(Nc1cncc(-c2cc(Cl)ccc2F)c1)c1ccccc1F` (centres unmarked) [Example 12, 2-[5-(5-Chloro-2-fluoro-phenyl)-pyridin-3-ylamino]-2-(2-fluoro-phenyl)-acetamide]: the half-inhibitory concentration (IC50) came to 38.5 nM. This IC50 is about 8-fold higher than that of the compound before.

`Cc1ccncc1-c1cncc(NC(C(N)=O)c2ccccc2)c1` (centres unmarked) [Example 5, 2-(4′-Methyl-[3,3′]bipyridinyl-5-ylamino)-2-phenyl-acetamide] displayed a 50% inhibitory concentration (IC50) of 133 nM.

Regarding `CS(=O)(=O)NC(=O)C(Nc1cncc(-c2cc(Cl)ccc2F)c1)c1ccccc1` (centres unmarked) [Example 22, N-{2-[5-(5-Chloro-2-fluoro-phenyl)-pyridin-3-ylamino]-2-phenyl-acetyl}-methanesulfonamide], inhibition was half-maximal at 7740 nM (IC50). The same measure, in the same setting: next, `NC(=O)C(Nc1cncc(-c2cc(Cl)ccc2F)n1)c1ccccc1` (centres unmarked) [Example 29, 2-[6-(5-Chloro-2-fluoro-phenyl)-pyrazin-2-ylamino]-2-phenyl-acetamide]: 123 nM.

Regarding `COc1cccc(C(Nc2cncc(-c3cc(Cl)ccc3F)c2)C(N)=O)c1` (centres unmarked) [Example 21, 2-[5-(5-Chloro-2-fluoro-phenyl)-pyridin-3-ylamino]-2-(3-methoxy-phenyl)-acetamide], the half-inhibitory concentration (IC50) turned out to be 101 nM. The same measure, in the same setting: next, `NC(=O)C(Nc1cncc(-c2cc(Cl)ccc2F)c1)c1cccs1` (centres unmarked) [Example 25, 2-[5-(5-Chloro-2-fluoro-phenyl)-pyridin-3-ylamino]-2-thiophen-2-yl-acetamide]: 85.4 nM; `COc1cccc(-c2cncc(N[C@@H](C(N)=O)c3ccccc3)n2)c1` [Example 33, (R)-2-[6-(3-Methoxy-phenyl)-pyrazin-2-ylamino]-2-phenyl-acetamide]: 567 nM. The same measure, in the same setting: next, `Cc1cccc(C(Nc2cncc(-c3cc(Cl)ccc3F)c2)C(N)=O)c1` (centres unmarked) [Example 13, 2-[5-(5-Chloro-2-fluoro-phenyl)-pyridin-3-ylamino]-2-m-tolyl-acetamide]: 566 nM; `NC(=O)C(Nc1cncc(-c2cc(Cl)ccc2F)c1)c1cccc(Cl)c1` (centres unmarked) [Example 19, 2-[5-(5-Chloro-2-fluoro-phenyl)-pyridin-3-ylamino]-2-(3-chloro-phenyl)-acetamide]: 432 nM. The compound `NC(=O)C(Nc1cncc(-c2cc(Cl)ccc2F)c1)c1cc(F)ccc1F` (centres unmarked) [Example 15, 2-[5-(5-Chloro-2-fluoro-phenyl)-pyridin-3-ylamino]-2-(2,5-difluoro-phenyl)-acetamide] displayed a concentration for half-maximal inhibition (IC50) of 123 nM.

On to `NC(=O)C(Nc1cncc(-c2cc(Cl)ccc2F)c1)c1ccc(Cl)cc1` (centres unmarked) [Example 20, 2-[5-(5-Chloro-2-fluoro-phenyl)-pyridin-3-ylamino]-2-(4-chloro-phenyl)-acetamide], for which the concentration for half-maximal inhibition (IC50) stood at 1080 nM. In the case of `NC(=O)[C@H](Nc1cncc(-c2ccc(O)c(Cl)c2)n1)c1ccccc1` [Example 27, (R)-2-[6-(3-Chloro-4-hydroxy-phenyl)-pyrazin-2-ylamino]-2-phenyl-acetamide], the IC50 came out at 2.8 nM.

The compound `NC(=O)C(Nc1cncc(-c2cc(Cl)ccc2F)c1)c1ccsc1` (centres unmarked) [Example 17, 2-[5-(5-Chloro-2-fluoro-phenyl)-pyridin-3-ylamino]-2-thiophen-3-yl-acetamide] yielded an IC50 of 54.2 nM. Same read-out and setting: next, `COc1cc(-c2cncc(NC(C(N)=O)c3ccccc3)c2)c(F)cn1` (centres unmarked) [Example 9, 2-(5′-Fluoro-2′-methoxy-[3,4′]bipyridinyl-5-ylamino)-2-phenyl-acetamide]: 1150 nM.

For the compound `NC(=O)[C@H](Nc1cncc(-c2cc(Cl)ccc2F)c1)c1ccccc1` [Example 1, (R)-2-[5-(5-Chloro-2-fluoro-phenyl)-pyridin-3-ylamino]-2-phenyl-cetamide], it took 91.7 nM to reach half-maximal inhibition (IC50).

A further experiment relates to HCT116 (colorectal cancer). Put plainly: In vitro cell proliferation assay (CCK-8), HCT116. The note with it: Homo sapiens, HCT-116, HCT116 cells, 72 hours. In kind it is cell-based. Here is the method:
(§1) In Vitro Cell Proliferation Assay
(§2) Cells were seeded on 96-well plates at 5×10^3 cells per well and precultured for 24 hours. The cells were treated with serial diluted compounds and cultured for 72 hours. Then all media was discarded and after that, 100 μL 1:10 (v/v) Cell Counting Kit-8 (CCK-8)-culture media solution was added to the wells. Plate was developed for 2 hrs in an incubator, and the absorbance was measured at 450 nm wavelengths with SpectraMAX190 (MDS, Sunnyvale, Calif.). The inhibition rate (IR) of the tested compounds was determined with following formula: IR (%)=(ODDMSO−ODcompound)/ODDMSO×100%. The concentration corresponding to 50% IR (IC50) was determined with plot curve of IR against tested compound concentrations with SoftMax Pro.
As to `NC(=O)[C@H](Nc1cncc(-c2ccc(O)c(Cl)c2)c1)c1ccccc1` [Example 3, (R)-2-[5-(3-Chloro-4-hydroxy-phenyl)-pyridin-3-ylamino]-2-phenyl-acetamide], the half-maximal inhibitory concentration (IC50) was 740 nM. For the compound `NC(=O)[C@H](Nc1cncc(-c2cc(Cl)ccc2F)c1)c1ccccc1` [Example 1, (R)-2-[5-(5-Chloro-2-fluoro-phenyl)-pyridin-3-ylamino]-2-phenyl-cetamide], the IC50 came out at 2610 nM. This IC50 lies about 3.5-fold higher than the previous one.

The next experiment concerns AGS (gastric cancer). Put plainly: In vitro cell proliferation assay (CCK-8), AGS. It counts as cell-based. The note with it: Homo sapiens, AGS cells, 72 hours. Here is the method:
as §1, §2
The compound `NC(=O)[C@H](Nc1cncc(-c2ccc(O)c(Cl)c2)c1)c1ccccc1` [Example 3, (R)-2-[5-(3-Chloro-4-hydroxy-phenyl)-pyridin-3-ylamino]-2-phenyl-acetamide] came in with an IC50 of 0.517 µM. That is a sub-micromolar value. Same read-out and setting: next, `NC(=O)[C@H](Nc1cncc(-c2cc(Cl)ccc2F)c1)c1ccccc1` [Example 1, (R)-2-[5-(5-Chloro-2-fluoro-phenyl)-pyridin-3-ylamino]-2-phenyl-cetamide]: 2.66 µM.

In the next experiment the test system is DLD-1 (colorectal cancer). Put plainly: In vitro cell proliferation assay (CCK-8), DLD-1. The following applies: Homo sapiens, DLD-1 cells, 72 hours. It counts as cell-based. Here is the method: as §1, §2
Compound `NC(=O)[C@H](Nc1cncc(-c2ccc(O)c(Cl)c2)c1)c1ccccc1` [Example 3, (R)-2-[5-(3-Chloro-4-hydroxy-phenyl)-pyridin-3-ylamino]-2-phenyl-acetamide] displayed a 50% inhibitory concentration (IC50) of 0.604 µM.
